Reference: patent publication US12691112B2, “FGFR tyrosine kinase inhibitors for the treatment of urothelial carcinoma” (Janssen Pharmaceutica NV, priority 2019, dated 2026)

Tested on: QTc interval
Details: 187 patients with cancer

## COc1cc(OC)cc(N(CCNC(C)C)c2ccc3ncc(-c4cnn(C)c4)nc3c2)c1 [erdafitinib, N-(3,5-dimethoxy-phenyl)-N′-(1-methylethyl)-N-[3-(1-methyl-1H-pyrazol-4-yl)quinoxalin-6-yl]ethane-1,2-diamine]
  effect on the QTc interval: no large effect (i.e., >20 ms)
